Measured values reported in patent US20110213335A1, “HOLLOW MICRONEEDLE ARRAY AND METHOD” (priority 2008, published 2011).
Counter-ions that a name gives are not always drawn.

Experiments:
[1] = oral administration; cited from earlier work
[2] = Naloxone infusion by hollow microneedle array with resulting PK profile (serum naloxone by LCMSMS); details: female, pig, other: intradermal infusion by hollow microneedle device

C=CCN1CC[C@]23c4c5ccc(O)c4O[C@H]2C(=O)CC[C@@]3(O)[C@H]1C5 [naloxone, naloxone hydrochloride]
bioavailability when administered orally [1]: about 2% | bioavailability [2]: 107%
